Consider 12 molecules from ChEMBL document CHEMBL1681671, “Substrate-controlled chemoselective synthesis and potent cytotoxic activity of novel 5,6,7-triarylpyrido[2,3-d]pyrimidin-4-one derivatives” (Bioorg Med Chem Lett, 2011).

In brackets after ≈: the same amount, converted by molar mass.

In one test the test system is SGC-7901. Briefly: Cytotoxicity against human SGC7901 cells assessed as cell mortality after 20 hrs by MTT assay. Format: functional, cell-based. Particulars: SGC-7901, 20 h. In general terms: Tetrazolium assays rely on reduction of a dye to a coloured formazan, in cell work by metabolically active cells.
Test [1] can be described thus: Cytotoxicity against human SW1116 cells assessed as cell proliferation inhibition rate at 10 ug/ml after 24 hrs by MTT assay. Format: functional. The note with it: SW 1116, 24 h.
A short description of test [2]: Cytotoxicity against human SW1116 cells assessed as cell proliferation inhibition rate at 1 ug/ml after 24 hrs by MTT assay. Particulars: SW 1116, 24 h. Format: functional.
The nature of test [3]: Cytotoxicity against human SW1116 cells assessed as cell proliferation inhibition rate at 0.1 ug/ml after 24 hrs by MTT assay. The test is classed as functional. The note with it: SW 1116, 24 h.

Take `COc1ccc([C@@H]2c3c(nc(N)[nH]c3=O)N=C(c3ccccc3)[C@H]2c2ccccc2)cc1OC` (racemic): the 50% inhibitory concentration (IC50) in the test with SGC-7901 worked out at 0.606 µg/mL (≈ 1.34 µM). In addition, the inhibition at 10 µg/mL in test [1] was 23.9%. Besides, the inhibition at 1 µg/mL in test [2] worked out at 13.8%. For the same molecule, the inhibition at 0.1 µg/mL in test [3] is 2.24%.

As for `COc1cc([C@@H]2c3c(nc(N)[nH]c3=O)N=C(c3ccccc3)[C@H]2c2ccccc2)cc(OC)c1OC` (racemic), the half-inhibitory concentration (IC50) in the test on SGC-7901 stood at 2.98 µg/mL (≈ 6.17 µM). In addition, in test [1], the inhibition at 10 µg/mL worked out at 36.9%. In addition, in test [2], the inhibition at 1 µg/mL came out at 16.7%. The inhibition at 0.1 µg/mL in test [3] is 21.8%.

Regarding `Nc1nc2c(c(=O)[nH]1)C(c1cccs1)C(c1ccccc1)=C(c1ccccc1)N2` (stereo unspecified), the IC50 in the test on SGC-7901 stood at 0.108 µg/mL (≈ 0.271 µM). Further, in test [1], the inhibition at 10 µg/mL was found to be 48.3%. For the same molecule, the inhibition at 1 µg/mL in test [2] is 37.2%. For the same molecule, in test [3], the inhibition at 0.1 µg/mL came to 22.4%.

For the molecule `Nc1nc2c(c(=O)[nH]1)[C@@H](c1ccccc1Cl)[C@H](c1ccccc1)C(c1ccccc1)=N2` (racemic), in the test on SGC-7901, the IC50 came to 1.56 µg/mL (≈ 3.67 µM). The inhibition at 10 µg/mL in test [1] was found to be 38.7%. The inhibition at 1 µg/mL in test [2] stood at 27.3%. Further, in test [3], the inhibition at 0.1 µg/mL turned out to be 31.8%.

Consider `Nc1nc2c(c(=O)[nH]1)C(c1ccc(F)cc1)C(c1ccccc1)=C(c1ccccc1)N2` (stereo unspecified), for which the IC50 in the test on SGC-7901 stood at 13 µg/mL (≈ 31.8 µM). In addition, the inhibition at 10 µg/mL in test [1] was 50.3%. Moreover, the inhibition at 1 µg/mL in test [2] was 17.6%. Also, the inhibition at 0.1 µg/mL in test [3] is 31.6%.

With `CN(C)c1ccc(C2C(c3ccccc3)=C(c3ccccc3)Nc3nc(N)[nH]c(=O)c32)cc1` (stereo unspecified), the IC50 with SGC-7901 was found to be 0.79 µg/mL (≈ 1.81 µM). The inhibition at 10 µg/mL in test [1] is 14%. Moreover, the inhibition at 1 µg/mL in test [2] worked out at 27.9%. In addition, the inhibition at 0.1 µg/mL in test [3] amounted to 20.5%.

Take `COc1ccccc1[C@@H]1c2c(nc(N)[nH]c2=O)N=C(c2ccccc2)[C@H]1c1ccccc1` (racemic): the concentration for half-maximal inhibition (IC50) in the test with SGC-7901 worked out at 0.359 µg/mL (≈ 0.85 µM). In addition, the inhibition at 10 µg/mL in test [1] was found to be 31.6%. For the same molecule, in test [2], the inhibition at 1 µg/mL was determined as 6.47%. In addition, the inhibition at 0.1 µg/mL in test [3] was 22.4%.

With `Nc1nc2c(c(=O)[nH]1)C(c1ccc(Br)cc1)C(c1ccccc1)=C(c1ccccc1)N2` (stereo unspecified), in the test with SGC-7901, the IC50 was determined as 0.074 µg/mL (≈ 0.157 µM). The inhibition at 10 µg/mL in test [1] came to 12%. For the same molecule, the inhibition at 1 µg/mL in test [2] was 19.3%. Moreover, in test [3], the inhibition at 0.1 µg/mL turned out to be 19.8%.

In the case of `Nc1nc2c(c(=O)[nH]1)C(c1ccc3c(c1)OCO3)C(c1ccccc1)=C(c1ccccc1)N2` (stereo unspecified), the 50% inhibitory concentration (IC50) in the test with SGC-7901 stood at 0.09 µg/mL (≈ 0.206 µM). Also, the inhibition at 10 µg/mL in test [1] turned out to be 20.6%. For the same molecule, the inhibition at 1 µg/mL in test [2] was 34.6%. Besides, in test [3], the inhibition at 0.1 µg/mL was 15.1%.

For `Nc1nc2c(c(=O)[nH]1)C(c1ccc(Cl)cc1)C(c1ccccc1)=C(c1ccccc1)N2` (stereo unspecified), in the test on SGC-7901, the concentration for half-maximal inhibition (IC50) was 0.104 µg/mL (≈ 0.244 µM). Further, in test [1], the inhibition at 10 µg/mL was 25.5%. In addition, the inhibition at 1 µg/mL in test [2] worked out at 25.1%. Moreover, in test [3], the inhibition at 0.1 µg/mL came out at 14.9%.

For `COc1ccc(C2C(c3ccccc3)=C(c3ccccc3)Nc3nc(N)[nH]c(=O)c32)cc1` (stereo unspecified), the concentration for half-maximal inhibition (IC50) with SGC-7901 was 0.341 µg/mL (≈ 0.807 µM). Further, the inhibition at 10 µg/mL in test [1] worked out at 42.8%. Besides, in test [2], the inhibition at 1 µg/mL turned out to be 29.1%. The inhibition at 0.1 µg/mL in test [3] came out at 43%.

For `COc1cccc2c1C(=O)c1c(O)c3c(c(O)c1C2=O)C[C@@](O)(C(=O)CO)C[C@@H]3O[C@H]1C[C@H](N)[C@H](O)[C@H](C)O1.Cl` [DOXORUBICIN HYDROCHLORIDE], the IC50 in the test with SGC-7901 is 0.078 µg/mL. The inhibition at 10 µg/mL in test [1] is 28.5%.

As a reminder, the IC50 is the concentration needed to halve the response being measured. Broadly, the inhibition is the share of the control response that was lost under treatment.
